# ± gives the standard deviation of the averaged measurements.
# Legend:
# SNX-5422 = compound: CC1(C)CC(=O)c2c(C(F)(F)F)nn(-c3ccc(C(N)=O)c(N[C@H]4CC[C@H](OC(=O)CN)CC4)c3)c2C1 [SNX-5422]; assay: surviving fraction relative to DMSO-only wells; higher = less growth inhibition; conditions: exposure time: 5 days
# Method in brief: (§1)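 Viability was scored with CellTiter-Glo luminescence and normalised to the median of DMSO-only wells as surviving fraction. Beforehand, log-phase tumour cell lines were seeded at 250–500 cells per well in 384-well plates, allowed 24 hours, and exposed continuously for five days to inhibitors at 0.5, 1, 5, 10, 50, 100, 500 and 1000 nM. Only lines whose three screens gave replicate Pearson r >0.7 and median Z' >0.3 were kept.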
# AFATINIB = compound: CN(C)C/C=C/C(=O)Nc1cc2c(Nc3ccc(F)c(Cl)c3)ncnc2cc1O[C@H]1CCOC1 [AFATINIB]; assay: as above; conditions: exposure time: 5 days
# Method in brief: as §1
# CANERTINIB = compound: C=CC(=O)Nc1cc2c(Nc3ccc(F)c(Cl)c3)ncnc2cc1OCCCN1CCOCC1 [CANERTINIB]; assay: area under dose-response curve of surviving fraction (unscaled, Aref=0) (surviving fraction x log10(nM)); higher = more resistant; conditions: exposure time: 5 days; dose range 0.5-1000 nM
# Method in brief: (§2)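 Three screens per tumour cell line were run in 384-well plates at eight inhibitor concentrations from 0.5 to 1000 nM over five days. Surviving fractions, from CellTiter-Glo luminescence normalised to DMSO-only wells, were fitted with 3-parameter logistic curves in the drc R package. The reported area under the curve is the unscaled activity area. It spans log10 dose, and Aref is 0.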
# SAPACITABINE = compound: CCCCCCCCCCCCCCCC(=O)Nc1ccn([C@@H]2O[C@H](CO)[C@@H](O)[C@@H]2C#N)c(=O)n1 [SAPACITABINE]; assay: as above; conditions: exposure time: 5 days; dose range 0.5-1000 nM
# Method in brief: as §2
# BI-2536 = compound: CC[C@@H]1C(=O)N(C)c2cnc(Nc3ccc(C(=O)NC4CCN(C)CC4)cc3OC)nc2N1C1CCCC1 [BI-2536]; assay: as above; conditions: exposure time: 5 days; dose range 0.5-1000 nM
# Method in brief: as §2
# [1] = compound: Cn1cc(C2=Nc3cc(NC(=O)C(N)C4CCCCC4)cc4c3C2=CNNC4=O)cn1; assay: as above; conditions: exposure time: 5 days; dose range 0.5-1000 nM
# Method in brief: as §2
Test System,surviving fraction (SNX-5422; 0.5 nM),surviving fraction (SNX-5422; 1 nM),surviving fraction (SNX-5422; 5 nM),surviving fraction (SNX-5422; 10 nM),surviving fraction (SNX-5422; 50 nM),surviving fraction (SNX-5422; 100 nM),surviving fraction (SNX-5422; 500 nM),surviving fraction (SNX-5422; 1000 nM),surviving fraction (AFATINIB; 0.5 nM),surviving fraction (AFATINIB; 1 nM),surviving fraction (AFATINIB; 5 nM),surviving fraction (AFATINIB; 10 nM),surviving fraction (AFATINIB; 50 nM),surviving fraction (AFATINIB; 100 nM),surviving fraction (AFATINIB; 500 nM),surviving fraction (AFATINIB; 1000 nM),area under dose-response curve (CANERTINIB),area under dose-response curve (SAPACITABINE),area under dose-response curve (BI-2536),area under dose-response curve [1]
MFM223 BREAST,1.16 ± 0.032,1.1 ± 0.029,1.06 ± 0.025,1.08 ± 0.074,0.254 ± 0.014,0.152 ± 0.016,0.111 ± 0.0051,0.116 ± 0.0013,1.13 ± 0.076,1.16 ± 0.11,1.13 ± 0.097,1.13 ± 0.031,1.11 ± 0.086,1.04 ± 0.1,0.803 ± 0.059,0.365 ± 0.021,2.88,2.85,0.566,2.38
CHLA90 AUTONOMIC GANGLIA,0.995 ± 0.028,1.07 ± 0.075,1.04 ± 0.041,1.026 ± 0.0046,0.251 ± 0.028,0.227 ± 0.029,0.129 ± 0.0096,0.141 ± 0.0081,0.991 ± 0.042,0.981 ± 0.056,0.839 ± 0.063,0.849 ± 0.077,0.819 ± 0.017,0.796 ± 0.052,0.775 ± 0.051,0.593 ± 0.036,2.51,2.09,1.2,2.37
SCC90 HEADNECK,1.08 ± 0.089,1.08 ± 0.071,1.12 ± 0.1,1.16 ± 0.077,0.225 ± 0.08,0.155 ± 0.047,0.0307 ± 0.0061,0.0383 ± 0.0015,1 ± 0.04,0.907 ± 0.086,0.621 ± 0.036,0.495 ± 0.028,0.42 ± 0.08,0.351 ± 0.0068,0.288 ± 0.011,0.235 ± 0.011,2.13,3.07,0.697,2.53
SCC003 HEADNECK,1.16 ± 0.017,1.15 ± 0.12,1.16 ± 0.081,1.13 ± 0.054,0.608 ± 0.023,0.384 ± 0.091,0.0973 ± 0.004,0.0767 ± 0.0055,1.11 ± 0.093,1.04 ± 0.045,0.941 ± 0.1,0.901 ± 0.095,0.636 ± 0.056,0.557 ± 0.0066,0.518 ± 0.068,0.425 ± 0.058,2.54,2.85,1.71,3.25
SUM149.B1*.S BREAST,1.06 ± 0.037,1.12 ± 0.032,1.09 ± 0.021,1.08 ± 0.037,0.385 ± 0.022,0.226 ± 0.017,0.0997 ± 0.0045,0.0978 ± 0.0067,1.11 ± 0.014,1.11 ± 0.061,1.05 ± 0.02,1.05 ± 0.037,0.966 ± 0.03,0.972 ± 0.045,0.916 ± 0.022,0.798 ± 0.044,3,1.89,2,3.05
MDAMB468 BREAST,1.038 ± 0.0097,1.05 ± 0.097,1.1 ± 0.043,1.033 ± 0.009,0.138 ± 0.013,0.164 ± 0.021,0.221 ± 0.026,0.207 ± 0.031,1.07 ± 0.026,1.04 ± 0.021,0.861 ± 0.078,0.767 ± 0.14,0.61 ± 0.017,0.617 ± 0.025,0.297 ± 0.012,0.0913 ± 0.0067,2.41,2.27,1.06,2.58
RDES SOFT TISSUE,1.13 ± 0.087,1.28 ± 0.15,1.07 ± 0.039,1.14 ± 0.19,0.459 ± 0.056,0.367 ± 0.053,0.056 ± 0.0095,0.0543 ± 0.0085,1.33 ± 0.2,1.29 ± 0.15,1.17 ± 0.19,1.3 ± 0.31,0.988 ± 0.18,1.16 ± 0.19,1.13 ± 0.22,1.11 ± 0.019,2.83,2.34,1.09,2.71

# Source: the supplement of paper PMC6045584
